Among the data in PubChem BioAssay AID256 (DTP/NCI, 2004) are T/C values, retold here.

Each structure is given as a SMILES string. Toxic doses and inconclusive results are not listed.

In this test the test system is CD2F1 mice, L1210 leukemia ip, survival T/C. As to the kind of experiment: NCI In Vivo Anticancer Drug Screen. Data for tumor model L1210 Leukemia (intraperitoneal) in CD2F1 (CDF1) mice. Particulars: higher = longer survival. The gist of the method:
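Read-out first: treated-group measurement over vehicle-control measurement, expressed as a ratio. Animals bore a transplanted tumor line and were dosed with compound or vehicle.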

[1] abbreviates: endpoint: mean survival time, dose: 100.0 mg/kg/injection, schedule: Q01DX001 (ip), vehicle: saline with Tween-80.
Where [2] appears, read: endpoint: mean survival time, dose: 200.0 mg/kg/injection, schedule: Q01DX001 (ip), vehicle: saline with Tween-80.
Where [3] appears, read: endpoint: mean survival time, dose: 400.0 mg/kg/injection, schedule: Q01DX001 (ip), vehicle: saline with Tween-80.
The mark [4] stands for this setting: endpoint: mean survival time, dose: 100.0 mg/kg/injection, schedule: Q01DX001 (ip), vehicle: other.
The mark [5] stands for this setting: endpoint: mean survival time, dose: 200.0 mg/kg/injection, schedule: Q01DX001 (ip), vehicle: other.
The mark [6] stands for this setting: endpoint: mean survival time, dose: 12.5 mg/kg/injection, schedule: Q01DX009 (ip), vehicle: saline with Tween-80.
[7] abbreviates: endpoint: mean survival time, dose: 12.5 mg/kg/injection, schedule: Q01DX009 (ip), vehicle: saline.
[8] abbreviates: endpoint: mean survival time, dose: 25.0 mg/kg/injection, schedule: Q01DX009 (ip), vehicle: saline with Tween-80.
Where [9] appears, read: endpoint: median survival time, dose: 25.0 mg/kg/injection, schedule: Q01DX009 (ip), vehicle: Klucel (hydroxypropylcellulose) (HPC).
Where [10] appears, read: endpoint: median survival time, dose: 50.0 mg/kg/injection, schedule: Q01DX009 (ip), vehicle: Klucel (hydroxypropylcellulose) (HPC).
Where [11] appears, read: endpoint: median survival time, dose: 100.0 mg/kg/injection, schedule: Q01DX009 (ip), vehicle: Klucel (hydroxypropylcellulose) (HPC).
Where [12] appears, read: endpoint: median survival time, dose: 200.0 mg/kg/injection, schedule: Q01DX009 (ip), vehicle: Klucel (hydroxypropylcellulose) (HPC).
Setting [13] is: endpoint: mean survival time, dose: 50.0 mg/kg/injection, schedule: Q01DX009 (ip), vehicle: saline with Tween-80.
[14] abbreviates: endpoint: mean survival time, dose: 100.0 mg/kg/injection, schedule: Q01DX009 (ip), vehicle: saline with Tween-80.
[15] abbreviates: endpoint: mean survival time, dose: 100.0 mg/kg/injection, schedule: Q04DX003 (ip), vehicle: saline.
[16] abbreviates: endpoint: mean survival time, dose: 200.0 mg/kg/injection, schedule: Q01DX009 (ip), vehicle: saline with Tween-80.
Where [17] appears, read: endpoint: mean survival time, dose: 200.0 mg/kg/injection, schedule: Q04DX003 (ip), vehicle: saline.

`CC1(C)N=C(N)N=C(N)N1c1cccc(CCCCc2ccc(Cl)c(S(=O)(=O)F)c2)c1`: the T/C is 98 % of control (endpoint: mean survival time, dose: 1.8 mg/kg/injection, schedule: Q01DX009 (ip), vehicle: saline); 93 % of control (endpoint: mean survival time, dose: 3.5 mg/kg/injection, schedule: Q01DX009 (ip), vehicle: saline); 91 % of control (endpoint: mean survival time, dose: 7.0 mg/kg/injection, schedule: Q01DX009 (ip), vehicle: saline); 89 % of control (endpoint: mean survival time, dose: 14.0 mg/kg/injection, schedule: Q01DX009 (ip), vehicle: saline); 104 % of control (endpoint: mean survival time, dose: 28.0 mg/kg/injection, schedule: Q01DX009 (ip), vehicle: saline); 86 % of control (endpoint: mean survival time, dose: 200.0 mg/kg/injection, schedule: Q04DX003 (ip), vehicle: saline sonified).
With `Cc1ccc(C(=S)NC(=O)Nc2ccccc2)cc1`, the T/C reads like this: under setting [1], 97 % of control; under setting [2], 94 % of control; under setting [3], 97 % of control.
On to `Cc1c2ccncc2c(C)c2c1oc1ccccc12`, for which the T/C reads like this: under setting [4], 108 % of control; under setting [5], 98 % of control; (endpoint: mean survival time, dose: 400.0 mg/kg/injection, schedule: Q01DX001 (ip), vehicle: other) 95 % of control.
For `NC(=O)c1csc(NC2OC(CO)C(O)C(O)C2O)n1` (stereo not drawn), the T/C reads like this: (endpoint: mean survival time, dose: 12.5 mg/kg/injection, schedule: Q01DX005 (ip), vehicle: water) 98 % of control; (endpoint: mean survival time, dose: 25.0 mg/kg/injection, schedule: Q01DX005 (ip), vehicle: water) 96 % of control; (endpoint: mean survival time, dose: 50.0 mg/kg/injection, schedule: Q01DX005 (ip), vehicle: water) 101 % of control; (endpoint: mean survival time, dose: 100.0 mg/kg/injection, schedule: Q01DX005 (ip), vehicle: water) 96 % of control; (endpoint: mean survival time, dose: 200.0 mg/kg/injection, schedule: Q01DX005 (ip), vehicle: water) 98 % of control.
`Cc1ncc(CNC(=O)N(CCCl)N=O)c(N)n1`: the T/C runs as follows: (endpoint: mean survival time, dose: 3.12 mg/kg/injection, schedule: Q01DX009 (ip), vehicle: saline) 159 % of control; (endpoint: mean survival time, dose: 3.13 mg/kg/injection, schedule: Q01DX009 (ip), vehicle: saline with Tween-80) 180 % of control; (endpoint: mean survival time, dose: 6.25 mg/kg/injection, schedule: Q01DX009 (ip), vehicle: saline with Tween-80) 195 % of control; (endpoint: mean survival time, dose: 6.25 mg/kg/injection, schedule: Q01DX009 (ip), vehicle: saline) 236 % of control; under setting [6], 357 % of control; under setting [7], 288 % of control. Besides, the T/C is 337 % of control (endpoint: mean survival time, dose: 17.5 mg/kg/injection, schedule: Q04DX002 (ip), vehicle: saline); 220 % of control under setting [8]; 316 % of control (endpoint: mean survival time, dose: 35.0 mg/kg/injection, schedule: Q04DX002 (ip), vehicle: saline).
`COc1ccc(C(CC(=O)c2ccccc2)[Se]c2ccccc2)cc1` (stereo not drawn): the T/C reads like this: under setting [9], 101 % of control; under setting [10], 100 % of control; under setting [11], 101 % of control; under setting [12], 94 % of control.
For the molecule `Nc1c(-c2nccc(=O)[nH]2)ncn1C1OC(CO)C(O)C1O` (stereo not drawn), the T/C (endpoint: median survival time, dose: 12.5 mg/kg/injection, schedule: Q01DX005 (ip), vehicle: saline with Tween-80) was 102 % of control; the T/C (endpoint: median survival time, dose: 25.0 mg/kg/injection, schedule: Q01DX005 (ip), vehicle: saline with Tween-80) is 96 % of control; the T/C (endpoint: median survival time, dose: 50.0 mg/kg/injection, schedule: Q01DX005 (ip), vehicle: saline with Tween-80) is 103 % of control; the T/C (endpoint: median survival time, dose: 100.0 mg/kg/injection, schedule: Q01DX005 (ip), vehicle: saline with Tween-80) is 98 % of control; the T/C (endpoint: median survival time, dose: 200.0 mg/kg/injection, schedule: Q01DX005 (ip), vehicle: saline with Tween-80) is 102 % of control.
On to `COc1nc(NC(C)C)nc(NC(C)C)n1`, for which the T/C by setting is: under setting [13], 97 % of control; under setting [14], 107 % of control; under setting [15], 95 % of control; under setting [16], 105 % of control; under setting [17], 100 % of control.
`O=c1ccccn1CCc1ccccc1`: the T/C is 101 % of control under setting [6], 98 % of control under setting [8] and 101 % of control under setting [13].
In the case of `C1=C(c2ccccc2)N(c2ccccc2)N=C(c2ccccc2)C1`, the T/C by setting is: under setting [1], 94 % of control; under setting [2], 94 % of control; under setting [3], 98 % of control.
With `O=C(O)c1cc(Cc2ccc(O)c(C(=O)O)c2)ccc1O` (tested in a mixture with another compound), the T/C runs as follows: (endpoint: median survival time, dose: 6.25 mg/kg/injection, schedule: Q01DX009 (ip), vehicle: Klucel (hydroxypropylcellulose) (HPC)) 101 % of control; (endpoint: median survival time, dose: 12.5 mg/kg/injection, schedule: Q01DX009 (ip), vehicle: Klucel (hydroxypropylcellulose) (HPC)) 104 % of control; under setting [9], 104 % of control; under setting [10], 97 % of control; under setting [11], 96 % of control; under setting [12], 89 % of control.
`Cc1cc2ccc(Cl)cc2[nH]1`: the T/C was 104 % of control under setting [4] and 104 % of control under setting [5].
As for `COC(Cn1cnc2c(N)ncnc21)OC`, the T/C is 110 % of control under setting [15]; 98 % of control under setting [17]; 112 % of control (endpoint: mean survival time, dose: 400.0 mg/kg/injection, schedule: Q04DX003 (ip), vehicle: saline).
On to `O=C1C=CC(=O)N1c1ccc(Br)cc1` (tested in a mixture with another compound), for which the T/C was 98 % of control (endpoint: mean survival time, dose: 100.0 mg/kg/injection, schedule: Q01DX009 (ip), vehicle: acetone) and 95 % of control (endpoint: mean survival time, dose: 200.0 mg/kg/injection, schedule: Q01DX009 (ip), vehicle: acetone).
With `O=C(Oc1ccccc1)C(O)CO` (stereo not drawn), the T/C is, setting by setting: under setting [1], 104 % of control; under setting [2], 101 % of control; under setting [3], 97 % of control.
`O=c1n(CCCl)c(=O)n(CCCl)c(=O)n1CCCl`: the T/C runs as follows: under setting [13], 101 % of control; under setting [14], 100 % of control; under setting [16], 101 % of control.
As to `O=S(=O)(O)SCCN1CCCC1`, the T/C is 107 % of control under setting [7]; 101 % of control (endpoint: mean survival time, dose: 12.5 mg/kg/injection, schedule: Q04DX003 (ip), vehicle: saline sonified); 104 % of control (endpoint: mean survival time, dose: 25.0 mg/kg/injection, schedule: Q01DX009 (ip), vehicle: saline); 98 % of control (endpoint: mean survival time, dose: 25.0 mg/kg/injection, schedule: Q04DX003 (ip), vehicle: saline sonified); 102 % of control (endpoint: mean survival time, dose: 50.0 mg/kg/injection, schedule: Q01DX009 (ip), vehicle: saline); 96 % of control (endpoint: mean survival time, dose: 50.0 mg/kg/injection, schedule: Q04DX003 (ip), vehicle: saline sonified).
Take `O=C1C(c2ccccc2)=C(c2ccccc2)c2cc(Br)c(Br)cc21`: the T/C (endpoint: mean survival time, dose: 50.0 mg/kg/injection, schedule: Q01DX001 (ip), vehicle: saline with Tween-80) is 93 % of control; the T/C under setting [1] was 93 % of control; the T/C under setting [2] is 93 % of control.
Regarding `N#C/C(=C\c1cccc2ccccc12)c1ccccc1`, the T/C reads like this: under setting [14], 100 % of control; (endpoint: mean survival time, dose: 100.0 mg/kg/injection, schedule: Q04DX003 (ip), vehicle: saline with Tween-80) 93 % of control; under setting [16], 96 % of control; (endpoint: mean survival time, dose: 200.0 mg/kg/injection, schedule: Q04DX003 (ip), vehicle: saline with Tween-80) 98 % of control; (endpoint: mean survival time, dose: 400.0 mg/kg/injection, schedule: Q01DX009 (ip), vehicle: saline with Tween-80) 97 % of control; (endpoint: mean survival time, dose: 400.0 mg/kg/injection, schedule: Q04DX003 (ip), vehicle: saline with Tween-80) 102 % of control.
For the molecule `CC(C)CC(=O)Nc1ccccc1`, the T/C (endpoint: mean survival time, dose: 100.0 mg/kg/injection, schedule: Q01DX009 (ip), vehicle: saline sonified) was 101 % of control; the T/C (endpoint: mean survival time, dose: 200.0 mg/kg/injection, schedule: Q01DX009 (ip), vehicle: saline sonified) was 102 % of control; the T/C (endpoint: mean survival time, dose: 400.0 mg/kg/injection, schedule: Q01DX009 (ip), vehicle: saline sonified) was 93 % of control.
